One test concerns the target T1, rKV1.6 (Rattus norvegicus, UniProt P17659).
T1 construct: expressed in transfected cells; host or cells: Xenopus laevis oocytes injected with cRNA
Briefly: Two-electrode voltage-clamp on Xenopus laevis oocytes expressing rKV1.6. Format: cell-based. As for the experimental part: (§1) The pharmacological effect of AbeTx1 was analyzed by heterologous expression of 12 voltage-gated potassium channels isoforms (rKV1.1, Genbank NM173095; rKV1.2, Genbank NM012970; hKV1.3, Genbank L23499; rKV1.4,Genbank NM012971; rKV1.5, Genbank NM012972; rKV1.6, Genbank NM575671; Shaker IR from Drosophila melanogaster, Genbank CG12348; rKV2.1, Genbank NM013186; hKV3.1, Genbank NM004976; rKV4.2, Genbank NM031730; rKV4.3, Genbank NM031739 and hERG, Genbank NM000238), and three voltage-gated sodium channel subtypes (rNaV1.2, Genbank NM012647; rNaV1.4, Genbank M26643 and BgNaV1.1, from Blattella germanica) (r, rat; h, human) in oocytes from Xenopus laevis. The linearized plasmids were transcribed using a T7 or SP6 mMESSAGE-mMACHINE transcription kit (Life Technologies, Austin, TX, USA). Oocytes were injected with 20–50 nL of cRNA at a concentration of 1 ng·nL^−1 using a microinjector (Drummond Scientific, Broomall, PA, USA). The oocytes were stored for 1–3 days at 16 °C until sufficient expression of voltage-gated ion channels was achieved. Oocytes were maintained in an ND96 solution (in mM: 96 NaCl, 2 KCl, 1.8 CaCl2, 2 MgCl2 and 5 HEPES; pH 7.4), supplemented with 50 µg·mL^−1 gentamicin sulfate.
(§2) Two-electrode voltage-clamp recordings were performed at room temperature (18–22 °C) using a Geneclamp 500 amplifier (Molecular Devices, Sunnyvale, CA, USA) controlled by a pClamp data acquisition system (Axon Instruments, Union City, CA, USA). ND96 was used as bath solution. Whole-cell currents from oocytes were recorded 1–3 days after injection. Voltage and current electrodes were filled with KCl (3 M). The resistance of both electrodes was kept between 0.8–1.0 MΩ. The elicited currents were filtered at 0.5 or 2 kHz using a four-pole low-pass Bessel filter. Leak subtraction was performed using a -P/4 protocol. KV1.1-KV1.6 and Shaker IR currents were evoked by 500 ms depolarization to 0 mV, followed by a 500 ms pulse to −50 mV, from a holding potential of −90 mV. KV2.1, KV3.1, KV4.2, and KV4.3 currents were elicited by 500 ms pulses to + 20 mV from a holding potential of −90 mV. Current traces of hERG channels were elicited by applying a +40 mV pulse for 2.5 s, followed by a step to −120 mV for 2.5 s. Sodium current traces were evoked by 100 ms depolarization steps from a holding potential of −90 mV to 0 mV. Concentration-response curves were constructed by adding different AbeTx1 or analogs concentrations directly to the bath solution. The percentage of the KV blockade was plotted against the logarithm of the applied concentrations and fitted with the Hill Equation (1):y = 100/[1 + (IC50/[toxin]) × h](1) where y is the amplitude of the toxin-induced effect, IC50 is the toxin concentration at half-maximal efficacy, [toxin] is the toxin concentration, and h is the Hill coefficient. To investigate the effects on the voltage dependence of activation, current traces were evoked by 10 mV depolarization steps from a holding potential of −90 mV. Data were normalized to the maximal K^+ current amplitude, plotted against prepulse potential, and fitted using the Boltzmann Equation (2):IK/Imax = [1 + (exp(Vg − V)/k] − 1(2) where Imax represents maximal potassium current (IK), Vg is the voltage corresponding to half-maximal current, and k is the slope factor. Each experimental data represents mean ± standard error of at least three oocytes (n ≥ 3) from different frogs. Effect of the toxin on current-voltage experiments was statistically examined by comparing the control condition and the presence of toxin using the Student’s paired t-test. P-values < 0.05 are considered to be statistically significant. Data were analyzed using Clampfit 10.4 (Molecular Devices, Sunnyvale, CA, USA) and Origin v8.1 software (Origin Lab, Northampton, MA, USA), under the institutional license of the University of São Paulo.
On the technique in general: In two-electrode clamp one electrode senses voltage and the other passes current.

The target of another test is T2, rKV1.1 (Rattus norvegicus, UniProt P10499).
T2 construct: expressed in transfected cells; host or cells: Xenopus laevis oocytes injected with cRNA
T2 sequence (P10499 whole entry): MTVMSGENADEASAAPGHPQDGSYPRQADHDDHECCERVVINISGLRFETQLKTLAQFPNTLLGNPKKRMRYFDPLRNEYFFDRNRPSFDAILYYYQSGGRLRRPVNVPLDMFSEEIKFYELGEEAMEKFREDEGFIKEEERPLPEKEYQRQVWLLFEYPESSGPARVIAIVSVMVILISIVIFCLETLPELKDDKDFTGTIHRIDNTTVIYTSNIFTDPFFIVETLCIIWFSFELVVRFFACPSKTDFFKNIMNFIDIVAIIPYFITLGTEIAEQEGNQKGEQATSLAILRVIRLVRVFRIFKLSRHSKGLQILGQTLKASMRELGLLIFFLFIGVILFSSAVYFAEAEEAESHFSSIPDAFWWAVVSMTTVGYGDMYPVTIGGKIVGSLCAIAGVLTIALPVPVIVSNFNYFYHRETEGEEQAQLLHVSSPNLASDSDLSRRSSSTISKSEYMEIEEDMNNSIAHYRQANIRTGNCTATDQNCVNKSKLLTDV
Put plainly: Two-electrode voltage-clamp on Xenopus laevis oocytes expressing rKV1.1. Format: cell-based. The protocol: as §1, §2

Setting [1] is: concentration-response curve, percentage blocked current fitted with Hill equation, TEVC oocytes, 0 mV from −90 mV, mean ± SE, n ≥ 3, SEM, read-out: KV1.6 IC50.
[2] abbreviates: concentration-response curve, percentage blocked current fitted with Hill equation, TEVC oocytes, 0 mV from −90 mV, mean ± SE, n ≥ 3, SEM, read-out: KV1.1 IC50.

Read-outs that look alike come from different tables or passages of the source. Positions of bridges follow the written chain, without caps; N, C: chain ends. Residues, ends and D or L forms follow the SMILES beside them.

T1 sequence (P17659 whole entry): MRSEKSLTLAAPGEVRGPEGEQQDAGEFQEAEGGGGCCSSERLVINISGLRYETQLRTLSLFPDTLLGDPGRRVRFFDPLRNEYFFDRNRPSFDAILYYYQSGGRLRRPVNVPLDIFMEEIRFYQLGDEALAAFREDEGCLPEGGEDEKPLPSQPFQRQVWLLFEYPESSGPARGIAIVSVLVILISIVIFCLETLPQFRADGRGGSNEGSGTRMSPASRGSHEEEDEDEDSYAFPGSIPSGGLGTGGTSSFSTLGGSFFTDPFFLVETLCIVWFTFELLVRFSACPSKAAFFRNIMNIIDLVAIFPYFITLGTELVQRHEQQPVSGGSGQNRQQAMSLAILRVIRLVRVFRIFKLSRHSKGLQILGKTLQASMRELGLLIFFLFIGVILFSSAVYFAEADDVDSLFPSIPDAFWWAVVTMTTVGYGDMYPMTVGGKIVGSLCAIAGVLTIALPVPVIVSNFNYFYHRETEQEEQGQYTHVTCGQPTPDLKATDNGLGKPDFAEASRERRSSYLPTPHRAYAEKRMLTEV

By IC50 is commonly meant the point on the concentration scale where inhibition reaches its midpoint. In the case of `CC[N+](CC)(CC)CC` [TEA, tetraethylammonium, reference compound], the “KV1.6 K+ currents reduced to” value on rKV1.6 (920 μM TEA alone in bath solution) amounted to 51.50 ± 0.65%. Also, the 50% inhibitory concentration (IC50) at rKV1.6 (external TEA in bath solution, concentration stated as IC50, read-out: TEA IC50 on KV1.6) came to 920 µM; at rKV1.1 (external TEA in bath solution, concentration stated as IC50, read-out: TEA IC50 on KV1.1) it was 200 µM. Moreover, the “KV1.1 current reduced to” value on rKV1.1 (200 μM TEA alone in bath solution) stood at 52.20 ± 1.74%.
As for `C[C@@H]1NC(=O)[C@H](CO)NC(=O)[C@@H]2CSSC[C@H](NC(=O)[C@H](CCCNC(=N)N)NC(=O)CNC1=O)C(=O)N[C@@H](CCCNC(=N)N)C(=O)N1CCC[C@H]1C(=O)N[C@@H](CCCCN)C(=O)N1CCC[C@H]1C(=O)N[C@@H](CC(N)=O)C(=O)N[C@H](C(=O)NCC(=O)O)CSSC[C@H](NC(=O)[C@@H](N)CCCNC(=N)N)C(=O)N[C@@H](CCCCN)C(=O)N[C@@H]([C@@H](C)O)C(=O)N2` [Lys7Ala] (H-RCKTCSAGRCRPKPNCG-OH; disulfide 2-16, 5-10), the results for the IC50 at rKV1.6 (setting [1]) and at rKV1.1 (setting [2]) were 0.852 ± 0.09 µM and 17.8 µM, respectively.
Consider `C[C@@H]1NC(=O)[C@@H]2CCCN2C(=O)[C@H](CCCNC(=N)N)NC(=O)[C@@H]2CSSC[C@H](NC(=O)[C@H]([C@@H](C)O)NC(=O)[C@H](CCCCN)NC(=O)[C@@H](NC(=O)[C@@H](N)CCCNC(=N)N)CSSC[C@@H](C(=O)NCC(=O)O)NC(=O)[C@H](CC(N)=O)NC(=O)[C@@H]3CCCN3C1=O)C(=O)N[C@@H](CO)C(=O)N[C@@H](CCCCN)C(=O)NCC(=O)N[C@@H](CCCNC(=N)N)C(=O)N2` [Lys13Ala] (H-RCKTCSKGRCRPAPNCG-OH; disulfide 2-16, 5-10), for which the IC50 at rKV1.6 (setting [1]) is 1.08 µM; at rKV1.1 (setting [2]), 4.55 µM.
Consider `C[C@@H]1NC(=O)[C@@H]2CSSC[C@H](NC(=O)[C@H]([C@@H](C)O)NC(=O)[C@H](CCCCN)NC(=O)[C@@H](NC(=O)[C@@H](N)CCCNC(=N)N)CSSC[C@@H](C(=O)NCC(=O)O)NC(=O)[C@H](CC(N)=O)NC(=O)[C@@H]3CCCN3C(=O)[C@H](CCCCN)NC(=O)[C@@H]3CCCN3C1=O)C(=O)N[C@@H](CO)C(=O)N[C@@H](CCCCN)C(=O)NCC(=O)N[C@@H](CCCNC(=N)N)C(=O)N2` [Arg11Ala] (H-RCKTCSKGRCAPKPNCG-OH; disulfide 2-16, 5-10), for which the concentration for half-maximal inhibition (IC50) at rKV1.6 (setting [1]) turned out to be 0.811 ± 0.179 µM; on rKV1.1 (setting [2]), 21.5 µM.

For the origin of these results see PMC6213216, “AbeTx1 Is a Novel Sea Anemone Toxin with a Dual Mechanism of Action on Shaker-Type K^+ Channels Activation” (Marine Drugs, 2018).
